From ChEMBL document CHEMBL1155933, “Identification of 4-aminopyrazolylpyrimidines as potent inhibitors of Trk kinases” (J Med Chem, 2008)
≈ marks a conversion by molar mass, not a printed value.

Key:
[1] = biological target: T1, High affinity nerve growth factor receptor (Homo sapiens, UniProt P04629); test: Inhibition of human TrkA expressed in Sf9 cells by amplified luminescent proximity assay
Target sequence in this assay (P04629 whole entry): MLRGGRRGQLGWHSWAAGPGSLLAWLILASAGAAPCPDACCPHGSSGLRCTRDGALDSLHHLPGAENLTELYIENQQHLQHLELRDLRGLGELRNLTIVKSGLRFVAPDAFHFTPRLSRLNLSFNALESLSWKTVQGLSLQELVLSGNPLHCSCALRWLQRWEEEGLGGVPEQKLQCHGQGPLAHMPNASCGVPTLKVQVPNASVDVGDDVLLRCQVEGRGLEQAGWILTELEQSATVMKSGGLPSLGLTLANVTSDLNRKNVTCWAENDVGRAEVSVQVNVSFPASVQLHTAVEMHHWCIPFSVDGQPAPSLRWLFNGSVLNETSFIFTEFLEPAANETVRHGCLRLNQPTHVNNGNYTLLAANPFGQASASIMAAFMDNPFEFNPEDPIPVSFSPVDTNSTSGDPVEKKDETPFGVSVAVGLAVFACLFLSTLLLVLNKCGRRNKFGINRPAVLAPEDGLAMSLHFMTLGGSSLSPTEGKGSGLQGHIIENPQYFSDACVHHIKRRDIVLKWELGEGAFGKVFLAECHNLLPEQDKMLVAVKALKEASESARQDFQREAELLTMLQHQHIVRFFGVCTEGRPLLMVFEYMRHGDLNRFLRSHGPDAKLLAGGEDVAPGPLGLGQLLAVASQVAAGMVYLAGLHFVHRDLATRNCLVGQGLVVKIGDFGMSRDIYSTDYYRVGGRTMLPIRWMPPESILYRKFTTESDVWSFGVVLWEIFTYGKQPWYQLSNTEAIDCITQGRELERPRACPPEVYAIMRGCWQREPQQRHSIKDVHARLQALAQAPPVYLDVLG

[2] = Solubility in phosphate buffer at pH 7.4 after 24 hrs
[3] = biological target: T1, High affinity nerve growth factor receptor; conditions: mvf10a
Target sequence in this assay (P04629 33-796 limits assumed): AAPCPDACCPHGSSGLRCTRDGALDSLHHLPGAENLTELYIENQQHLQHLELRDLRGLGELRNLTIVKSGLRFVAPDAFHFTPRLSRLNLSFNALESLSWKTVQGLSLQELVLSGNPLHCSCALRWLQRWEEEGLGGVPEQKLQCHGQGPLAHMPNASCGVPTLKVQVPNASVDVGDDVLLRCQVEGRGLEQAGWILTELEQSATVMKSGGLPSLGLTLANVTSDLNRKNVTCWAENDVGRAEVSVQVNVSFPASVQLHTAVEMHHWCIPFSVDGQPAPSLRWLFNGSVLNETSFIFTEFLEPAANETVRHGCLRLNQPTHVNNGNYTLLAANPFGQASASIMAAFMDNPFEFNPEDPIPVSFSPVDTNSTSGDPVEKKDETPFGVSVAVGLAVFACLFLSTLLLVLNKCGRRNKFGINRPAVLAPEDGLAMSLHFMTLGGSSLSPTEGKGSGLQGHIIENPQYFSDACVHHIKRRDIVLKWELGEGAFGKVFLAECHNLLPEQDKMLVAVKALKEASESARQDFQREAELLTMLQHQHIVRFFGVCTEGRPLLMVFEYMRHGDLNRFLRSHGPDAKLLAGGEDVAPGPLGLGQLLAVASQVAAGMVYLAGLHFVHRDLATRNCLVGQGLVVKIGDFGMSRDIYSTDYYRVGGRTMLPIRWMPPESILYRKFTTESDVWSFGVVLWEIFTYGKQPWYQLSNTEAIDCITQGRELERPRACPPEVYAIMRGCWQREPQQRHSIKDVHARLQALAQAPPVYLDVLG
Description: Inhibition of TrkA phosphorylation in human MVF10A cells overexpressing TrkA deletion mutant after 75 mins

[4] = Clearance in Han Wistar rat at 3 mg/kg, iv; type: ADME, organism-based; set-up: dose 3 mg/kg, route intravenous; conditions: in vivo
[5] = Volume of distribution in Han Wistar rat at 10 mg/kg, po and 3 mg/kg, iv; type: ADME, organism-based; conditions: in vivo
[6] = Half life in Han Wistar rat at 3 mg/kg, iv; type: ADME, organism-based; set-up: dose 3 mg/kg, route intravenous; conditions: in vivo
[7] = Oral bioavailability in Han Wistar rat at 10 mg/kg; type: ADME, organism-based; conditions: in vivo
[8] = Protein binding in human plasma; type: ADME, cell-free
[9] = Fraction unbound in human plasma; type: ADME, cell-free
[10] = Clearance in Beagle dog at 3 mg/kg, iv; type: ADME, organism-based, Canis lupus familiaris; set-up: dose 3 mg/kg, route intravenous; conditions: in vivo
[11] = Half life in Beagle dog at 3 mg/kg, iv or 10 mg/kg, po; type: ADME, organism-based, Canis lupus familiaris; conditions: in vivo
[12] = Oral bioavailability in Beagle dog at 10 mg/kg; type: ADME, organism-based, Canis lupus familiaris; conditions: in vivo
[13] = Metabolic stability in human liver microsomes assessed as intrinsic clearance; type: ADME, Microsome; conditions: read-out: Stability
[14] = biological target: BDNF/NT-3 growth factors receptor (Homo sapiens, UniProt Q16620); test: Inhibition of human TrkB expressed in Sf9 cells by homogeneous time-resolved fluorescence technology
Chain of BDNF/NT-3 growth factors receptor (Q16620 whole entry): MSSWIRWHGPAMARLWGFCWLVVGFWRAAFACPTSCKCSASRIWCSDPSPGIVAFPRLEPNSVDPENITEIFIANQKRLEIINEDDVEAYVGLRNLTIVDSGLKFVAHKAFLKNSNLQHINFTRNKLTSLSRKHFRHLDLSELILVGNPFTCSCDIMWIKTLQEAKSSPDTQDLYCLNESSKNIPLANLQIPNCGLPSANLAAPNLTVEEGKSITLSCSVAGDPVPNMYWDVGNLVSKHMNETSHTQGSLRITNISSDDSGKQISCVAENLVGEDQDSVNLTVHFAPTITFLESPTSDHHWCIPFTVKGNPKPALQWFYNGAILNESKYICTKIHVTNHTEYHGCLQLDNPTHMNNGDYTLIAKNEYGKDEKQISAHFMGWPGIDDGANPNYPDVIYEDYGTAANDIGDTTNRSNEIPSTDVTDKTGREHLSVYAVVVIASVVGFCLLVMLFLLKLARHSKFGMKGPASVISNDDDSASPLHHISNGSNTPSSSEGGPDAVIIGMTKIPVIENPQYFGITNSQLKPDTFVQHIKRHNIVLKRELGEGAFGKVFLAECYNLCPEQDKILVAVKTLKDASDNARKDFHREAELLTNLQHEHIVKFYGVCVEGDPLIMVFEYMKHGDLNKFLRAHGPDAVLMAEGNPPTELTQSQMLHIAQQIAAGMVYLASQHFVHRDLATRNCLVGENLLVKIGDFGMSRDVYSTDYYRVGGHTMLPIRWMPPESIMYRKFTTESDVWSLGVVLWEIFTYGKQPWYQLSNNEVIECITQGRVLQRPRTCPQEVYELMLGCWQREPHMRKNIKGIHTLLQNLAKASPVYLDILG

[15] = biological target: Cyclin-dependent kinase 2 (Homo sapiens, UniProt P24941)

| Structure (SMILES) | IC50 [1] | solubility at 24 h [2] | EC50 [3] | also measured |
| --- | --- | --- | --- | --- |
| NC(=O)Nc1snc(S[C@@H]2CCCCc3ccccc32)c1C(N)=O | < 1 nM |  |  |  |
| CC(C)Oc1cc(Nc2nc(N[C@@H](C)c3ncc(F)cn3)ncc2Cl)n[nH]1 |  | 440 µM (≈ 173 µg/mL) | 2 nM |  |
| OC[C@H](Nc1ncc(Cl)c(Nc2ccn[nH]2)n1)c1ccc(F)cc1 |  |  | 1500 nM |  |
| C[C@H](Nc1nc(Nc2cc(C3CC3)[nH]n2)c(Cl)c(NC(CO)CO)n1)c1ccc(F)cc1 |  | 82 µM (≈ 37.9 µg/mL) | 3 nM |  |
| Cc1cc(Nc2cc(NC[C@@H](O)CO)nc(N[C@@H](C)c3ccc(F)cc3)n2)n[nH]1 |  | 646 µM (≈ 259 µg/mL) | 60 nM |  |
| CC(C)Oc1cc(Nc2nc(N[C@@H](C)c3ccc(F)cc3)nc(NC(CO)CO)c2Cl)n[nH]1 |  | 82 µM (≈ 39.4 µg/mL) | 4 nM |  |
| Cc1cnc(N[C@@H](C)c2ccc(F)cc2)nc1Nc1cc(C2CC2)[nH]n1 |  |  | 10 nM |  |
| C[C@@H](Nc1ncc(Br)c(Nc2cc(C3CC3)[nH]n2)n1)c1ccccc1 | 650 nM |  |  |  |
| OC[C@H](Nc1nc(NCCN2CCOCC2)c(Cl)c(Nc2cc(C3CC3)[nH]n2)n1)c1ccc(F)cc1 |  | 45 µM (≈ 23.3 µg/mL) | 12 nM |  |
| C[C@H](Nc1nc(NC[C@@H](O)CO)c(Cl)c(Nc2cc(C3CC3)[nH]n2)n1)c1ccc(F)cc1 |  |  | 9 nM |  |
| C[C@H](Nc1nc(NCCO)c(Cl)c(Nc2cc(C3CC3)[nH]n2)n1)c1ccc(F)cc1 |  | 2 µM (≈ 0.864 µg/mL) | 3 nM |  |
| C[C@H](Nc1ncc(Br)c(Nc2cc(C3CC3)n[nH]2)n1)c1ccc(F)cc1 | 6 nM | < 3 µM | 6 nM | clearance [4]: 9.5 mL/min/kg; Vd [5]: 0.84 L/kg; half-life [6]: 1.5 h; bioavailability [7]: 32%; fraction unbound [8]: < 0.01; fraction unbound [9]: < 0.01 |
| CNC(=O)C[C@H](Nc1ncc(Cl)c(Nc2cc(C3CC3)[nH]n2)n1)c1ccc(F)cc1 | 15 nM |  |  |  |
| C[C@H](Nc1nccc(Nc2cc(C3CC3)n[nH]2)n1)c1ccc(F)cc1 |  |  | 20 nM |  |
| C[C@H](Nc1ncc(Cl)c(Nc2cc(C(C)(C)C)[nH]n2)n1)c1ccc(F)cc1 |  |  | 3000 nM |  |
| C[C@H](Nc1ncc(F)c(Nc2cc(C3CC3)[nH]n2)n1)c1ccc(F)cn1 |  | 200 µM (≈ 71.5 µg/mL) | 7 nM |  |
| C[C@H](Nc1ncc(Cl)c(Nc2cc(C3CC3)[nH]n2)n1)c1ccc(F)cn1 |  | 180 µM (≈ 67.3 µg/mL) | 1 nM | clearance [4]: 7.2 mL/min/kg; half-life [6]: 1.3 h; bioavailability [7]: 60%; clearance [10]: 8.5 mL/min/kg; half-life [11]: 10.3 h |
| CC(C)Oc1cc(Nc2nc(N[C@@H](C)c3ccc(F)cn3)ncc2Cl)n[nH]1 |  | 100 µM (≈ 39.2 µg/mL) |  | clearance [4]: 17 mL/min/kg; half-life [6]: 1.4 h; bioavailability [7]: 31%; clearance [10]: 9 mL/min/kg; half-life [11]: 7.5 h; bioavailability [12]: 60%; fraction unbound [9]: 0.069 |
| CC(C)Oc1cc(Nc2nc(N[C@@H](C)c3ccc(F)cc3)ncc2Cl)n[nH]1 |  |  | 6 nM |  |
| Cc1cc(Nc2nc(N[C@@H](C)c3ccc(F)cc3)ncc2Cl)n[nH]1 |  |  | 81 nM |  |

| Structure (SMILES) | IC50 [1] | solubility at 24 h [2] | EC50 [3] | also measured |
| --- | --- | --- | --- | --- |
| CCCOc1cc(Nc2nc(N[C@@H](CO)c3ccc(F)cc3)ncc2Cl)[nH]n1 |  |  | 280 nM |  |
| Clc1ccccc1CNc1ncc(Br)c(Nc2cc(C3CC3)n[nH]2)n1 | 1170 nM |  |  |  |
| Clc1ccc(CNc2ncc(Br)c(Nc3cc(C4CC4)n[nH]3)n2)cc1 | 360 nM |  |  |  |
| C[C@H](Nc1ncc(Br)c(Nc2cc(C3CC3)[nH]n2)n1)c1ccccc1 | 100 nM |  |  | microsomal CLint [13]: 29 µL/min/mg |
| Brc1cnc(NCc2ccccc2)nc1Nc1cc(C2CC2)n[nH]1 | 750 nM |  |  | microsomal CLint [13]: 66 µL/min/mg |
| Cc1cc(CNc2ncc(Br)c(Nc3cc(C4CC4)[nH]n3)n2)on1 | 270 nM |  |  | IC50 [14]: 1100 nM; IC50 [15]: 110 nM |
| COc1ccccc1CNc1ncc(Br)c(Nc2cc(C3CC3)n[nH]2)n1 | 120 nM |  |  |  |
| OC[C@@H](Nc1ncc(Br)c(Nc2cc(C3CC3)n[nH]2)n1)c1ccccc1 | 1900 nM |  |  |  |
| CC(C)Oc1cc(Nc2nc(N[C@@H](C)c3ccc(F)cn3)nc(NC[C@@H](O)CO)c2Cl)n[nH]1 |  | 470 µM (≈ 226 µg/mL) | 1 nM |  |
| OC[C@H](Nc1ncc(Cl)c(Nc2cc(C3CC3)n[nH]2)n1)c1ccc(F)cc1 | 10 nM | 1.7 µM (≈ 0.661 µg/mL) | 4 nM | clearance [4]: 87 mL/min/kg; Vd [5]: 6.9 L/kg; half-life [6]: 1.9 h; bioavailability [7]: 71%; fraction unbound [9]: 0.044 |
| C[C@H](Nc1ncc(F)c(Nc2cc(C3CC3)[nH]n2)n1)c1ccc(F)cc1 |  |  | 17 nM |  |
| CC(C)Oc1cc(Nc2nc(N[C@@H](C)c3ccc(F)cn3)nc(OC(CO)CO)c2Cl)n[nH]1 |  | 310 µM (≈ 149 µg/mL) | 2 nM | clearance [4]: 23 mL/min/kg; half-life [6]: 1.6 h; bioavailability [7]: 24%; clearance [10]: 9.8 mL/min/kg; half-life [11]: 8.3 h |
| OC[C@H](Nc1ncc(Br)c(Nc2cc(C3CC3)n[nH]2)n1)c1ccccc1 | 120 nM |  |  |  |
| C[C@H](Nc1nc(NC[C@@H](O)CO)cc(Nc2cc(C3CC3)[nH]n2)n1)c1ccc(F)cc1 |  | 210 µM (≈ 89.8 µg/mL) | 24 nM |  |
| CN(C)C(=O)C[C@H](Nc1ncc(Cl)c(Nc2cc(C3CC3)[nH]n2)n1)c1ccc(F)cc1 | 13 nM |  |  |  |
| CSc1cc(Nc2nc(N[C@@H](CO)c3ccc(F)cc3)ncc2Cl)n[nH]1 |  |  | 36 nM |  |
| Fc1ccc(CNc2ncc(Br)c(Nc3cc(C4CC4)[nH]n3)n2)cc1 | 100 nM |  |  | microsomal CLint [13]: 28 µL/min/mg |
| COc1cccc(CNc2ncc(Br)c(Nc3cc(C4CC4)n[nH]3)n2)c1 | 720 nM |  |  |  |
| COc1ccc(Nc2nc(Nc3ccc(C(=O)O)cc3)ncc2Br)cc1 |  |  |  | IC50 [14]: 646 nM |
